In US20060069132A1, “Azolecarboxamide herbicides” (priority 2004, published 2006):

Experiments:
ducksalad [1] = experiment: Test C flooded paddy test; format: in vivo, Heteranthera limosa; details: for Plant response rating, Ducksalad: 500 g ai/ha, visual rating after 12 to 14 days
ducksalad [2] = experiment: Test B flooded paddy test; format: in vivo, Heteranthera limosa; details: 1000 g ai/ha, scale 0 to 100 (0 no effect, 100 complete control)
Outline: (§1)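 Paddy species grown to the 2-leaf stage under flooding; blackgrass sprayed postemergence at 2–18 cm (1- to 4-leaf stage). Plants kept in a greenhouse for 13 to 15 days, then visually rated against controls on 0 (no effect) to 100 (complete control).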

[3] = system: smallflower umbrella sedge; experiment: Test C flooded paddy test; format: in vivo, Cyperus difformis; details: for Plant response rating, Sedge, Umbrella: 500 g ai/ha, visual rating after 12 to 14 days
rice = experiment: Test B flooded paddy test; format: in vivo, Oryza sativa; details: 1000 g ai/ha, scale 0 to 100 (0 no effect, 100 complete control)
Outline: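 Plants grow to 1- to 4-leaf stage (2–18 cm) for postemergence spraying, or to 2-leaf stage for the paddy test. Formulated compound is applied. Greenhouse holding lasts 13–15 days. Response is scored visually relative to controls, 0 no effect to 100 complete control; a dash means no result.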

barnyardgrass = experiment: Test B flooded paddy test; format: in vivo, Echinochloa crus-galli; details: 1000 g ai/ha, scale 0 to 100 (0 no effect, 100 complete control)
Outline: as §1

[4] = 62 g ai/ha, scale 0 to 100 (0 no effect, 100 complete control)
[5] = 125 g ai/ha, scale 0 to 100 (0 no effect, 100 complete control)
[6] = 250 g ai/ha, scale of 0 to 100, 0 is no effect, 100 is complete control
[7] = scale 0 to 100 (0 no effect, 100 complete control)

Row | Structure (SMILES) | Ducksalad plant response rating (ducksalad [1]; [4]) | Ducksalad plant response rating (ducksalad [1]; [5]) | Ducksalad plant response rating (ducksalad [1]; [6]) | Plant response rating, Ducksalad (ducksalad [1]; [7]) | Ducksalad plant response rating (ducksalad [2]; visual rating, 13 to 15 days) | Sedge, Umbrella plant response rating [3, 4] | Sedge, Umbrella plant response rating [3, 5] | Sedge, Umbrella plant response rating [3, 6] | Plant response rating, Sedge, Umbrella [3, 7] | Rice plant response rating (rice; visual rating, 13 to 15 days) | Barnyardgrass plant response rating (barnyardgrass; visual rating, 13 to 15 days) | Ducksalad plant response rating (ducksalad [1]; 62 g ai/ha, scale 0 to 100) | Ducksalad plant response rating (ducksalad [2]) | Sedge, Umbrella plant response rating ([3]; 62 g ai/ha, scale 0 to 100) | Rice plant response rating (rice) | Barnyardgrass plant response rating (barnyardgrass)
1 | CCc1nc(C(C)(C)C)sc1C(=O)Nc1cccc(C(=O)NCCF)c1 [Compound 209] | 65 | 65 | 65 | 80 | 80 | 55 | 55 | 65 | 80 | 50 | 60 | – | – | – | – | –
2 | CCc1nc(C(C)(C)C)sc1C(=O)Nc1cccc(C(=O)NC(C)(C)C)n1 [Compound 216] | 0 | 20 | 30 | 40 | 80 | 20 | 30 | 30 | 50 | 30 | 20 | – | – | – | – | –
3 | CCNC(=O)c1ccc(F)c(NC(=O)c2cc(C(C)(C)C)nn2CC)n1 [Compound 278] | – | 0 | 0 | 20 | – | – | 25 | 65 | 75 | – | – | 0 | 80 | 0 | 60 | 60
4 | CCn1nc(C(C)(C)C)cc1C(=O)Nc1nc(C(=O)N2CC=CC2)ccc1F [Compound 281] | – | 0 | 70 | 85 | – | – | 20 | 40 | 90 | – | – | 0 | 80 | 15 | 70 | 70
5 | C#CCNC(=O)c1cc(NC(=O)c2cc(C(C)(C)C)nn2CC)ccn1 [Compound 283] | – | 0 | 0 | 0 | – | – | 0 | 0 | 0 | – | – | 0 | 70 | 0 | 10 | 20
6 | CCn1nc(C(C)(C)C)cc1C(=O)Nc1cncc(C(=O)N2CC=CC2)n1 [Compound 290] | – | 0 | 45 | 70 | – | – | 25 | 65 | 70 | – | – | 0 | 70 | 0 | 60 | 70
7 | C#CCNC(=O)c1cccc(NC(=O)c2sc(C(C)(C)C)nc2CC)c1 [Compound 319] | – | 0 | 45 | 85 | – | – | 35 | 70 | 80 | – | – | 0 | 90 | 20 | 70 | 10
8 | CCn1nc(C(C)(C)C)cc1C(=O)Nc1cccc(OS(=O)(=O)CC)c1 [Compound 408] | – | 85 | 95 | 95 | – | – | 80 | 85 | 85 | – | – | 65 | 90 | 60 | 80 | 70
9 | CCN(C(C)=O)C(=O)c1ccc(F)c(NC(=O)c2cc(C(C)(C)C)nn2CC)c1 [Compound 413] | – | 45 | 70 | 70 | – | – | 50 | 75 | 75 | – | – | 15 | 80 | 10 | 60 | 60
